Consider 1 molecule from patent publication US4223041A, “Urea derivatives to treat anxiety and aggressivity” (Labaz, priority 1976, dated 1980).

Data set [1] can be described thus: Four plates test (anxiolytic action). The data set is classed as in vivo, mouse. The source says: This test, which is specific to the anxiolytics, was undertaken with the mouse, thirty minutes after the oral administration of the compound to be studied.
It consists in placing mice in a box with fairly high walls, of which the bottom comprises four square plates. These plates, which all have the same dimensions, are separated from each other by a central axis and are alternately electrified by the positive and negative poles of a source of electric current. There is a space of a few millimeters between adjacent plates.
The mouse placed in this apparatus explores it and thus passes over the different plates in succession. Note is taken of the number of times each animal passes over the plates during one minute. When the current is switched on, the mouse passing over the plates receives an electric shock (80 V), which provokes a gradual decrease in the exploratory movements, and finally brings the animals to a complete stop.
Anxiolytic agents enable the animals to become more or less indifferent to the electric shock.
The percentage of protection against anxiety given by compounds of the invention was calculated by comparing the number of times the control animals passed over the plates when electrified with the number of times the treated animals passed over the electrified plates.

The next data set is described as follows: Acute toxicity in rats. To be noted: rat, in vivo.

One may read the LD50 as the dose at which mortality reaches 50%. Regarding `CCCC(CCC)(CCC)NC(N)=O` [Compound A, 1-(1,1-Di-n-propyl-n-butyl)-urea], the inhibition in vivo at 175 mg/kg in data set [1] (0.5 h, 175 mg/kg oral, mouse, 30 min after administration, read-out: % of protection against anxiety) is 25%. In addition, the “positive result in four plates test without sedative effect” value in data set [1] (at ED25 of four plates test) is given as “without any sedative effect”. Besides, the mortality at 192 h in “Acute toxicity in rats” (3000 mg/kg oral, 8-day observation, read-out: deaths) is 10%. In “Acute toxicity in rats” (oral), the LD50 at 192 h was over 3000 mg/kg.
